We go through one molecule from patent EP2727916A1, “Neuroprotective multi-target directed drugs” (Universitat Autònoma de Barcelona, priority 2012, dated 2014).

One assay concerns the target T1, bovine lung SSAO (Bos taurus, UniProt Q9TTK6).
T1 construct: and bovine lung SSAO by compounds of the invention; from tissue; host or cells: bovine lung
T1 sequence (Q9TTK6 1-763): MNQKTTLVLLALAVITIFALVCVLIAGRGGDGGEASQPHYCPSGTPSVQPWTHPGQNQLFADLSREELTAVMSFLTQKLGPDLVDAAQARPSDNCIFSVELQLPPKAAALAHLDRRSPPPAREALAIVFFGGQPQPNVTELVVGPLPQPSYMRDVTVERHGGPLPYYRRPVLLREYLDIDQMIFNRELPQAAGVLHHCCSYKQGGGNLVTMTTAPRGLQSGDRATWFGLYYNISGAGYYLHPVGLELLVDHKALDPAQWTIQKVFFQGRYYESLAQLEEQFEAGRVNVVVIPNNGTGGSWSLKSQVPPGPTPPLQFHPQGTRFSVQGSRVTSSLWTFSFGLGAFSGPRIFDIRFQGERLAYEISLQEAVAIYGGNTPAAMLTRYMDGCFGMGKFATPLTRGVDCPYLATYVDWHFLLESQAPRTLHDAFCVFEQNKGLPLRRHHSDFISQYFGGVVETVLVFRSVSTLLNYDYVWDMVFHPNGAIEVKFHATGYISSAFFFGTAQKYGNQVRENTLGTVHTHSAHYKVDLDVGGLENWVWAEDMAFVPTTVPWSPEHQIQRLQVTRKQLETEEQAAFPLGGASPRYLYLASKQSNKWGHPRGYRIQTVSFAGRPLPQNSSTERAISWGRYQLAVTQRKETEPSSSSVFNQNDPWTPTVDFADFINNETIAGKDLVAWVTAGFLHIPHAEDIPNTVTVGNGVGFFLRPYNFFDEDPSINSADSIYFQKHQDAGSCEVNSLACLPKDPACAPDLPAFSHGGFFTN
Description: Inhibition of semicarbazide sensitive amine oxidase (SSAO), radiochemical. Format: biochemical.

Another assay concerns the target EeAChE (Electrophorus electricus, UniProt O42275). Briefly: Kinetic study of EeAChE inhibition (Lineweaver-Burk plots). Format: biochemical. On the procedure: (§1) Lineweaver-Burk reciprocal plots of initial velocity and substrate concentrations (0.1-1 mM) are presented. […] Lineweaver-Burk reciprocal plots of initial velocity and substrate concentrations (0.1-1 mM) are presented. […] Lineweaver-Burk reciprocal plots of initial velocity and substrate concentrations (0.1-1 mM) are presented. […] Three consecutive centrifuges were performed with buffer. […] 5 µM). All solution were made using Tris buffer pH7.4. […] 5 µM). All solution were made using Tris buffer pH7.4. […] 5 µM). All solution were made using Tris buffer pH7.4. Spectra were obtained after a Short-time incubation
To determine the type of the EeAChE inhibition mechanism of these compounds, a kinetic study was carried out on inhibitor 6.

The target of the next assay is T2, MAO-B (Rattus norvegicus, UniProt P19643).
T2 construct: from tissue; host or cells: rat brain homogenate per the methods
T2 sequence (P19643 1-520): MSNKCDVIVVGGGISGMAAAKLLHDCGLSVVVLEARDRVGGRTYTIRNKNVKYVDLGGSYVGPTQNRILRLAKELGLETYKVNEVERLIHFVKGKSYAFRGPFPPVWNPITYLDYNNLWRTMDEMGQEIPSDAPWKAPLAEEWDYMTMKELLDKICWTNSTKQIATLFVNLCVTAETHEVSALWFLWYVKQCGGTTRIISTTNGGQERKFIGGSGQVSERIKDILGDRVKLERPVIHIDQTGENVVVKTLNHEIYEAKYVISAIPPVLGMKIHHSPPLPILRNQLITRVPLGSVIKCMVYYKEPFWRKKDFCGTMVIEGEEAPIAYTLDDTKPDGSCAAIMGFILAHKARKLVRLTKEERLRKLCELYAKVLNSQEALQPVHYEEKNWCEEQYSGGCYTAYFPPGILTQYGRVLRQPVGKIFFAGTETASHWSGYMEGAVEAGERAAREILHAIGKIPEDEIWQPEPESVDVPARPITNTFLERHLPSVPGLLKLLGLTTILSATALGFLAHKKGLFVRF
Description: Reversibility study of MAO-B inhibition (centrifugation and washing). The class given is biochemical. On the procedure:
as §1

The nature of assay [1]: Metal binding assay, spectrophotometric detection of Fe(III) complex. The class given is physicochemical. Conditions: 10 µM, Tris buffer pH7.4, Fe2(SO4)3 6.25 and 12.5 µM. On the procedure:
Lineweaver-Burk reciprocal plots of initial velocity and substrate concentrations (0.1-1 mM) are presented. […] Lineweaver-Burk reciprocal plots of initial velocity and substrate concentrations (0.1-1 mM) are presented. […] Lineweaver-Burk reciprocal plots of initial velocity and substrate concentrations (0.1-1 mM) are presented. […] Three consecutive centrifuges were performed with buffer. […] 5 µM). All solution were made using Tris buffer pH7.4. […] 5 µM). All solution were made using Tris buffer pH7.4. […] 5 µM). All solution were made using Tris buffer pH7.4. […]
It is known that 8-quinolinol is a strong chelator for biometals such iron and copper. This is an important precondition for the antioxidative-type drugs because it is the excessive iron stores and iron-mediated generation of free radicals in the brain that are thought to be associated with neurodegenerative diseases. Therefore, only chelators with a higher selectivity for iron over copper are expected to chelate iron instead of copper and have potential neuroprotective effects. […] A spectrophotometric method is used for measurement of the copper/iron-complexes stability constants of the compounds.
The metal binding assay was performed by the spectrophotometric detection of the formation of Fe(III)- and Cu(II)-6 complex.

Another assay has as its target T3, ratMAO-B (Rattus norvegicus, UniProt P19643).
T3 sequence (P19643 1-520): T2 sequence (P19643 1-520)
Description: Kinetic study of MAO-B inhibition (Lineweaver-Burk plots). Details: from tissue; host or cells: rat brain homogenate per the methods. The class given is biochemical. How it is done:
as §1

Setting [2] is: Lineweaver-Burk reciprocal plots.
[3] abbreviates: estimated from the slopes of double reciprocal plots.

Sequence of EeAChE (O42275 24-633): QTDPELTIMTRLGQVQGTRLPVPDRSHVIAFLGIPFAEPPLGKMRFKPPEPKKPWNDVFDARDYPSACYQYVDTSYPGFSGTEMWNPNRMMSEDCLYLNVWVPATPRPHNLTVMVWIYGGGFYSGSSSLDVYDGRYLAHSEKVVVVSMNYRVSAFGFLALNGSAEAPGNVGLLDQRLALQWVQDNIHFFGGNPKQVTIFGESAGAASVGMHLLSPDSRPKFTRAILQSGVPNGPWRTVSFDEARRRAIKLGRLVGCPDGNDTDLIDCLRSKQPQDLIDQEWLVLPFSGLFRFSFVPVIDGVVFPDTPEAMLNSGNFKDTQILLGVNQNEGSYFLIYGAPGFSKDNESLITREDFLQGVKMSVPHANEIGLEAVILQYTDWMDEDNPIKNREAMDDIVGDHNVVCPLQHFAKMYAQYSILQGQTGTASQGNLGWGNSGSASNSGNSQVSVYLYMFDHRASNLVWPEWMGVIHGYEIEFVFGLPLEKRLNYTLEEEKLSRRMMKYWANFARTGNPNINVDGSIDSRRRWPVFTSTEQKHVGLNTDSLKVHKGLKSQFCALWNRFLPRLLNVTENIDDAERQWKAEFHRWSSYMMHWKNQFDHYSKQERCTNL

Take `C#CCN(Cc1ccc(O)c2ncccc12)C(C#N)CCC1CCN(Cc2ccccc2)CC1` (stereo not drawn) [Compound 6, 4-(1-benzylpiperidin-4-yl)-2-(((8-hydroxyquinolin-5-yl)methyl)(prop-2-yny)amino)butanenitrile]: it took 2.01 ± 0.5 µM to reach half-maximal inhibition against bovine lung SSAO (IC50). For the same molecule, the “type of EeAChE inhibition mechanism” value on EeAChE (setting [2]) was “mixed-type inhibition”. The Ki was 1.21 ± 0.25 µM on EeAChE (setting [3]) and 10.8 ± 2.43 µM on ratMAO-B (setting [3]). At MAO-B (30 min inhibition (6 at 20 µM, I-deprenyl 20 nM), three consecutive centrifugations and washings with buffer), the “reversibility of MAO-B inhibition” value is recorded as “reversibly inhibited”. The same molecule showed an MAO-B activity recovering on MAO-B (inhibited at 20 µM for 30 min, three consecutive centrifuges with buffer, mean ± SEM) of 55.8 ± 4.0%. For the same molecule, the “formation of Fe(III)-6 complex, UV-vis spectrum change” value is reported as “no significative changes in the spectrum were observed” in assay [1] (few minutes after addition) and “bathocromic shift of the 240nm-band to the appearance of another one at 250nm” in assay [1] (overnight incubation). In addition, the “type of MAO-B inhibition mechanism” value on ratMAO-B (setting [2]) was “non-competitive inhibition”.
